Reference: publication PMC10693528, “A high-throughput metabolomics in vitro platform for the characterization of hepatotoxicity” (Cell Biology and Toxicology, 2023)

Test system: HepG2 cells
Test: LC-MS/MS targeted intracellular metabolomics
Type: cell-based, human
Conditions: Suppl Fig 9; C3 (EC15 ATP), 48 h; Bezafibrate lines = Plates 1-6 in order
Description: Metabolite profiling of cells was performed directly in the same 96-well plate according to a standardized protocol described below. In order to prevent any interaction with the cell material, the automatic sampler was adjusted to pick up the sample from the supernatant at a specified depth avoiding the contact with the bottom of the plate.
After the initial quenching step (50 μL isopropanol 80%), additional 70 μL of isopropanol 80%, containing internal standards (methionine-D3, tryptophan-D5, arginine-13C6-15N4, Boc-Ala-Gly-Gly-Gly-OH, coenzyme Q1, coenzyme Q2, coenzyme Q4) were added to each well. The internal standards were used for quality control by visual inspection (signal intensity, peak shape, retention time); they were not used for normalization. Afterwards, plates were shaken for 5 min, 750 rpm at 20 °C, and placed for 30 s in the ultrasonic device. Then, the plates were centrifugated for 10 min, at 5485 g, 15 °C. Further, 2.5 μL of the extract were injected each for reversed-phase and hydrophilic interaction liquid chromatography followed by MS/MS detection (AB Sciex QTrap 6500+) using the positive and negative ionization mode. For reverse-phase high-performance liquid chromatography (RP-HPLC, Ascentis Express C18, 5 cm × 2.1 mm, 2.7 μm Supelco), gradient elution was performed with mobile phase A, water/methanol/0.1 M ammonium formate (1:1:0.02, w/w), and B, methyl-tert-butylether/2-propanol/methanol/0.1 M ammonium formate/formic acid (4:2:1:0.07:0.035, w/w) 5.9 min linear gradient: 0 min 100% A, 0.5 min 75% A, 5.9 min 10% A; followed by 0% A until 6.7 min; re-equilibration at 100% A until 7.7 min; flow rate 600 μL/min; column temperature 40 °C HILIC (ZIC-HILIC, 2.1 × 100 mm, 3.5 μm, Supelco) gradient elution was performed with mobile phase C, acetonitrile/water (99:1, v/v) with 0.2% (v) acetic acid, and D, 7 mM ammonium acetate with 0.2% (v) acetic acid (5.0 min linear gradient: 0 min 100% C, 5 min 10% C; followed by a linear gradient back to 100%C until 6.5 min; re-equilibration at 100% C until 7.5 min; flow rate 600 μL/min; column temperature 40 °C.). Two LC-MS systems with identical configuration were used for the analysis. Normalization to lyophilized reference samples (see below) was used to compensate for variation from between analytical batches. The efficiency of this normalization procedure was checked by principal component analysis (PCA), confirming that Pool samples from different analytical batches clustered together.
Reference samples derived from lyophilized untreated HepG2 cells (technical control samples) were measured in parallel throughout the entire analytical process. Data were normalized against the median of these lyophilized HepG2 cells reference samples, to give normalized ratios (performed for each sample per metabolite). This compensated for inter- and intra-instrumental variation. To correct for small differences in cell numbers within and between different treatment groups, data were also normalized to the within sample median, as described in detail by (Ramirez et al. [2018]). For intracellular metabolomic analysis, the median of each sample was calculated across all the 221 measured metabolites.
To generate metabolic profiles for the different treatments, heteroscedastic t test (Welch test) was applied to log-transformed normalized metabolite data to compare treated groups with their respective controls.
Principal component analysis (PCA) and hierarchical clustering (HCA) analyses were performed using R software environment (https://www.r-project.org/). PCA was conducted using the ropls package (Thévenot et al. [2015]) with log10-transformed input data and standard scaling. HCA was performed using the pvclust package (Suzuki et al. [2019]), (https://CRAN.R-project.org/package=pvclust). Input: log10(Ratio), clustering method: Ward D2, distance method: Manhattan, bootstrapping: 10000 times.

O=C(O)c1cc(Oc2ccc(C(F)(F)F)cc2Cl)ccc1[N+](=O)[O-] [Acifluorfen]
2'-Deoxycytidine level vs controls: 0.56 | 5-Hydroxytryptophan level vs controls: 0.74 | Carnitine level vs controls: 0.98 | Ceramide (d18:1.C20:0) level vs controls: 0.74 | Ceramide (d18:1.C24:1) level vs controls: 0.72 | Ceramide (d18:1.C24:2) level vs controls: 0.68 | Ceramide (d18:2.C24:1) level vs controls: 0.64 | Choline plasmalogen (C36:4) level vs controls: 0.75 | Choline plasmalogen (C36:5) level vs controls: 0.70 | Creatine level vs controls: 0.87 | Glycerol-3-phosphate level vs controls: 0.90 | Hexanoylcarnitine level vs controls: 0.70 | Ketoleucine level vs controls: 0.80 | Lysophosphatidylcholine (C14:0) level vs controls: 1.75 | Lysophosphatidylcholine (C16:0) level vs controls: 1.17 | Lysophosphatidylcholine (C16:1) level vs controls: 1.22 | Lysophosphatidylcholine (C20:4) level vs controls: 0.94 | Lysophosphatidylcholine (C24:0) level vs controls: 1.25 | Lysophosphatidylcholine (C24:1) level vs controls: 1.00 | Lysophosphatidylethanolamine (C16:0) level vs controls: 1.67 | Lysophosphatidylethanolamine (C18:0) level vs controls: 1.69 | Lysophosphatidylethanolamine (C18:1) level vs controls: 1.09 | N-Acetylaspartate level vs controls: 1.50 | Pantothenic acid level vs controls: 0.68 | Phosphatidylcholine (C32:0) level vs controls: 0.82 | Phosphatidylcholine (C34:1) level vs controls: 0.81 | Phosphatidylcholine (C34:3) level vs controls: 1.23 | Phosphatidylcholine (C36:1) level vs controls: 0.76 | Phosphatidylcholine (C36:2) level vs controls: 0.78 | Phosphatidylcholine (C36:3) level vs controls: 0.82 | Phosphatidylcholine (C36:4) level vs controls: 0.66 | Phosphatidylcholine (C36:5) level vs controls: 0.71 | Phosphatidylethanolamine (C36:3) level vs controls: 0.86 | Phosphatidylethanolamine (C38:3) level vs controls: 1.05 | Phosphatidylethanolamine (C38:5) level vs controls: 0.82 | Phosphatidylethanolamine (C38:6) level vs controls: 0.91 | Phosphatidylethanolamine (C40:7) level vs controls: 0.68 | Phosphocholine level vs controls: 0.79 | Propionylcarnitine level vs controls: 0.79 | S-Adenosylhomocysteine level vs controls: 0.84 | Sphingomyelin (d32:2) level vs controls: 0.65 | Sphingomyelin (d33:1) level vs controls: 0.93 | Sphingomyelin (d34:0) level vs controls: 1.12 | Sphingomyelin (d35:1) level vs controls: 0.85 | Sphingomyelin (d36:1) level vs controls: 0.84 | Sphingomyelin (d36:2) level vs controls: 0.76 | Sphingomyelin (d37:1) level vs controls: 0.89 | Sphingomyelin (d38:1) level vs controls: 0.89 | Sphingomyelin (d38:2) level vs controls: 0.83 | Sphingomyelin (d39:1) level vs controls: 1.01 | Sphingomyelin (d40:2) level vs controls: 0.87 | Sphingomyelin (d41:2) level vs controls: 0.90 | Sphingomyelin (d42:2) level vs controls: 0.85 | Taurine level vs controls: 0.61 | Triacylglycerol (C34:1.C18:3) level vs controls: 1.73 | Triacylglycerol (C34:2.C18:0) level vs controls: 2.66 | Triacylglycerol (C34:2.C18:1) level vs controls: 2.04 | Triacylglycerol (C36:4.C16:0) level vs controls: 1.86 | Triacylglycerol (C36:4.C18:0) level vs controls: 2.14
